The values that follow come from PMC9914411, “Potent Xanthine Oxidase Inhibitory Activity of Constituents of Agastache rugosa (Fisch. and C.A.Mey.) Kuntze” (Foods, 2023).

SMILES strings stand for the structures. Read-outs that look alike come from different tables or passages of the source.

Assay [1] deals with T1, bovine milk XO (Bos taurus, UniProt P80457).
T1 construct: The bovine milk XO activity was assayed; from tissue; host or cells: bovine milk
The assay is described as follows: XO kinetic assay (Lineweaver–Burk and Dixon plots, reversibility, preincubation). Format: biochemical. The note with it: for Xanthine Oxidase Kinetic Mode: Lineweaver–Burk and Dixon plots. As to the method: The bovine milk XO activity was assayed following the previously published procedures. […] First, 125 µL of 100 mM sodium pyrophosphate buffer (HCl, pH 7.5), 30 µL of 0.1 units XO enzyme, 5 µL of test samples, and 40 µL of the substrate (0.5 mM xanthine) were mixed. The reaction mixture (200 µL) in a 300 µL well plate was incubated at 37 °C and the UV absorbance at 295 nm was screened every 1 min for 15 min. The inhibition mechanism and constants (Km, Vmax, and Ki) of a binding site for the inhibitor to a free enzyme (KI) or an enzyme–substrate complex (KIS) were determined using the Lineweaver–Burk and Dixon plots. 1/V = Km/Vmax (1 + [I]/KI) 1/S + 1/Vmax(1) Slope = Km/KI Vmax [I] + Km/Vmax (2) Intercept = 1/KIS Vmax [I] + 1/Vmax (3) […]
The kinetic behaviors of the oxidation of xanthine catalyzed by XO at different concentrations of inhibitor were analyzed using both Lineweaver–Burk (Figure 3A) and Dixon plots (Figure 3B). […] The two possible inhibition mechanisms were investigated to reveal which one gives this kinetic profile. The mechanisms of mixed inhibition can be investigated through the changes of the substrate with inhibitor followed by measurements of the residual enzyme–substrate complex. Parameters of free enzyme (KI) and the enzyme–substrate complex (KIS) can be fitted to Equations (2) and (3). […] Further analysis of the progress of the inhibition was undertaken by preincubating the enzyme with 7, prior to the addition of the substrate.

The target in assay [2] is T1, bovine milk XO. The assay is described as follows: XO inhibitory activity assay (uric acid formation from xanthine, absorbance at 295 nm). Format: biochemical. The note with it: for inhibition at 5 µM: read-out: XO inhibitory activity (%); for inhibition at 25 µM: read-out: Xanthine Oxidase Inhibition %. As to the method:
The bovine milk XO activity was assayed following the previously published procedures. […] First, 125 µL of 100 mM sodium pyrophosphate buffer (HCl, pH 7.5), 30 µL of 0.1 units XO enzyme, 5 µL of test samples, and 40 µL of the substrate (0.5 mM xanthine) were mixed. […] The inhibition mechanism and constants (Km, Vmax, and Ki) of a binding site for the inhibitor to a free enzyme (KI) or an enzyme–substrate complex (KIS) were determined using the Lineweaver–Burk and Dixon plots.
The ARE was prepared using five different polar solvents (EtOH, 70% EtOH, 50% EtOH, 30% EtOH, and H2O) and tested for their XO inhibitory activity.

[3] abbreviates: isolated compounds and positive controls, read-out: Xanthine Oxidase IC50.
Where [4] appears, read: sample concentration 25 µM for the compound.

By IC50 is commonly meant the concentration that gives 50% inhibition. One may read the Ki as the dissociation constant of the complex between target and ligand, obtained from inhibition or displacement.

T1 sequence (P80457 whole entry): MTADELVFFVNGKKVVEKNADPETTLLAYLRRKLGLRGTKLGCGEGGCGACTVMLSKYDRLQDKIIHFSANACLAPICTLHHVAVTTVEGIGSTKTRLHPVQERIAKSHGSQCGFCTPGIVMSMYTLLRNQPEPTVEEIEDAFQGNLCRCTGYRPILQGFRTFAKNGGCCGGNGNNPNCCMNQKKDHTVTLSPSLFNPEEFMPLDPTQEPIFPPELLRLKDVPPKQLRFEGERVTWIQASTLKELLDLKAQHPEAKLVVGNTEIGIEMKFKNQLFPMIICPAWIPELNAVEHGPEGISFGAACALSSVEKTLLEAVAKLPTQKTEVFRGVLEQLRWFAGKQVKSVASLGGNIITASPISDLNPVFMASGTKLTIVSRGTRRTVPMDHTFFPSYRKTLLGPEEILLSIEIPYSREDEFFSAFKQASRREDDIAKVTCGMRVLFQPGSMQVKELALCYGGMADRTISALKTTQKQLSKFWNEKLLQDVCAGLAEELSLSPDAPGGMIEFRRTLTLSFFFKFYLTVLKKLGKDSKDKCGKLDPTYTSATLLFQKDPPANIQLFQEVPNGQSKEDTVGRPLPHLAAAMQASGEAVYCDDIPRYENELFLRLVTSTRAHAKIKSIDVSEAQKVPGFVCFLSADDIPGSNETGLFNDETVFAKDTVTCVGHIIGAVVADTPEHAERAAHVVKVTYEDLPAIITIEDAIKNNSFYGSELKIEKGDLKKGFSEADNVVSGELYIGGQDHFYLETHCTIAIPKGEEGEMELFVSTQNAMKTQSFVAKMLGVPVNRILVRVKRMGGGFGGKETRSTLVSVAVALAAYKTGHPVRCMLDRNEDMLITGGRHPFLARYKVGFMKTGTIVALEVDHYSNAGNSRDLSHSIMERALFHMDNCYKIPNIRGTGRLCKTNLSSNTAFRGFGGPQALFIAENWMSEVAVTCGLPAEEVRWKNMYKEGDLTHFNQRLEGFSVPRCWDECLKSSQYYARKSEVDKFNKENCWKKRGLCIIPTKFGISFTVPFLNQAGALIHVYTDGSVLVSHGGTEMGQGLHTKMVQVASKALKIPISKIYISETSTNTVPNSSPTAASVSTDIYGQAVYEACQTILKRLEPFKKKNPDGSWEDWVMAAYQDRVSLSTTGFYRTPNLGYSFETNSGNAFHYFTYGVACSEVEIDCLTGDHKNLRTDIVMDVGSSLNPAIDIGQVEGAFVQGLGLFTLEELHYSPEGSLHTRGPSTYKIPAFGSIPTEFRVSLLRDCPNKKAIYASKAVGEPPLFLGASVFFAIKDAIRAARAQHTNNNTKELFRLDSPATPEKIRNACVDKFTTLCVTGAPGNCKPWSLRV

Consider `Oc1ncnc2[nH]ncc12` [Allopurinol, reference compound], for which, at bovine milk XO [1], the “Xanthine Oxidase Kinetic Mode” value was “Competitive”. For the same compound, on bovine milk XO [2], the inhibition at 5 µM was 51.9% and the inhibition at 25 µM was 82.5 ± 1.2%.
Turning to `O=C(/C=C/c1ccc(O)c(O)c1)O[C@H](Cc1ccc(O)c(O)c1)C(=O)O` [Compound 1, Rosmarinic acid], on bovine milk XO [2] (setting [3]), the half-maximal inhibitory concentration (IC50) was greater than 100 µM. Further, the inhibition at 25 µM on bovine milk XO [2] (setting [4]) worked out at 27.2 ± 1.5%.
`COc1ccc(-c2cc(=O)c3c(O)cc(OC4OC(COC(=O)CC(=O)O)C(O)C(O)C4OC(C)=O)cc3o2)cc1` [Compound 6, Acacetin 7-O-(2″-O-acetyl-6″-O-malonyl)-β-D-glucoside]: the half-inhibitory concentration (IC50) at bovine milk XO [2] (setting [3]) was greater than 100 µM. Moreover, the inhibition at 25 µM on bovine milk XO [2] (setting [4]) turned out to be 26.2 ± 0.9%.
For `COc1ccc(-c2cc(=O)c3c(O)cc(O)cc3o2)cc1` [Compound 7, Acacetin], the Ki is 0.61 µM on bovine milk XO [1] (Dixon plots, read-out: Xanthine Oxidase Ki) and 0.57 µM at bovine milk XO [1] (secondary plot of slope, Equation (2), read-out: KI (inhibitor binding to free enzyme)). Besides, the “Xanthine Oxidase Kinetic Mode” value on bovine milk XO [1] is reported as “mixed type I”. Moreover, on bovine milk XO [1] (activity versus enzyme concentration at 0-1.56 μM inhibitor), the “Reversibility of XO inhibition” value is recorded as “reversible inhibition”. Further, the “Inhibition as a function of preincubation time” value on bovine milk XO [1] (enzyme preincubated with inhibitor at 0.2 μM) is recorded as “time-dependent inhibitory behavior”. In addition, the “KIS (inhibitor binding to enzyme–substrate complex)” value at bovine milk XO [1] (secondary plot of intercept, Equation (3)) worked out at 1.14 µM. In addition, on bovine milk XO [2] (concentration of 5 μM), the inhibition at 5 µM came to 75.5%. Further, at bovine milk XO [2] (setting [3]), the half-inhibitory concentration (IC50) was found to be 0.58 ± 0.5 µM. Further, the inhibition at 25 µM on bovine milk XO [2] (setting [4]) came to 94.5 ± 1.4%.
`COc1ccc(-c2cc(=O)c3c(O)cc(OC4OC(CO)C(O)C(O)C4OC(C)=O)cc3o2)cc1` [Compound 5, Acacetin 7-O-(2″-O-acetyl)-β-D-glucoside]: the IC50 on bovine milk XO [2] (setting [3]) worked out at 74.5 ± 0.9 µM. The inhibition at 25 µM on bovine milk XO [2] (setting [4]) worked out at 40.7 ± 1.5%.
In the same order, the values of `COc1ccc(-c2cc(=O)c3c(O)cc(OC4OC(COC(=O)CC(=O)O)C(O)C(O)C4O)cc3o2)cc1` [Compound 4, Acacetin 7-O-(6-O-malonyl)-β-D-glucoside] are 80.6 ± 0.7 µM and 36.2 ± 1.4%.
The like results for `COc1ccc(-c2cc(=O)c3c(O)cc(O[C@@H]4O[C@H](CO)[C@@H](O)[C@H](O)[C@H]4O)cc3o2)cc1` [Compound 3, Tilianin] were, in that order, 26.4 ± 0.6 µM and 49.3 ± 1.5%.
On to `O=C(/C=C/c1ccc(O)c2c1[C@H](C(=O)O[C@H](Cc1ccc(O)c(O)c1)C(=O)O)[C@@H](c1ccc(O)c(O)c1)O2)O[C@H](Cc1ccc(O)c(O)c1)C(=O)O` [Compound 2, Salvianolic acid B], for which, at bovine milk XO [2], the IC50 came to 30.7 ± 0.8 µM. Moreover, the inhibition at 25 µM on bovine milk XO [2] (setting [4]) was determined as 46.1 ± 1.2%.
For `O=c1cc(-c2ccc(O)cc2)oc2cc(O)cc(O)c12` [Apigenin, reference compound], the “Xanthine Oxidase Kinetic Mode” value at bovine milk XO [1] is given as “Competitive”. Besides, the inhibition at 5 µM at bovine milk XO [2] (concentration of 5 μM) was determined as 67.2%. For the same compound, the IC50 at bovine milk XO [2] (setting [3]) stood at 0.87 µM. For the same compound, the inhibition at 25 µM on bovine milk XO [2] (setting [4]) was found to be 88.6 ± 1.2%.
